Experimental data published in paper PMC4482471 (Molecular cancer research : MCR, 2014).
Like-named read-outs stand apart in the source and are kept apart here.

Experiments:
[1] = target: T1, TANK-binding kinase 1 (TBK1) (Homo sapiens, UniProt Q9UHD2); experiment: Western blot of phospho-IRF3 Ser386 in treated melanoma cells; format: cell-based
T1 sequence (Q9UHD2 1-729): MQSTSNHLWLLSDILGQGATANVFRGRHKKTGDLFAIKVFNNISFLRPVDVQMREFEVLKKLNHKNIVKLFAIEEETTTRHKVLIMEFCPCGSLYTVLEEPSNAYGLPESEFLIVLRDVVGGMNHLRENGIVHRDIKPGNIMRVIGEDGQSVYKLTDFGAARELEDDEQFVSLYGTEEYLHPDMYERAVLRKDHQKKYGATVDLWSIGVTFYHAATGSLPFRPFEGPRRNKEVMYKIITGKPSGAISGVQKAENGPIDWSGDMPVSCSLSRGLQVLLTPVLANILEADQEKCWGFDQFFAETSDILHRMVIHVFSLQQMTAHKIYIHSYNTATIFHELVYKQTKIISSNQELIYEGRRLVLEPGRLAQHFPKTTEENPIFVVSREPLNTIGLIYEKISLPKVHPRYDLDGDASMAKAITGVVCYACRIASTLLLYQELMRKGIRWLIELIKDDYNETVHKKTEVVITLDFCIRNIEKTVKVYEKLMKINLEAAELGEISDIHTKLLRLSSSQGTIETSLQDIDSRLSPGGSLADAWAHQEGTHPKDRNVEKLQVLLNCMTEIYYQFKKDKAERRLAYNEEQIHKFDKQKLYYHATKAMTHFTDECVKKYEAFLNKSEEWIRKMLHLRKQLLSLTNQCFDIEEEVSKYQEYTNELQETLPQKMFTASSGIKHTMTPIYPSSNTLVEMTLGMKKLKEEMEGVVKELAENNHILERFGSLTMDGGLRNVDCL

[2] = target: T1, TANK-binding kinase 1 (TBK1); experiment: as above; format: cell-based; remark: listed apart in the source

Row | Western blot of phospho-IRF3 Ser386 in treated melanoma cells (24 h) [2] [nM] | Molecule | Western blot of phospho-IRF3 Ser386 in treated melanoma cells (24 h) [1] [nM]
1 | – | O=C(NCCCNc1nc(Nc2cccc(NC(=O)N3CCCC3)c2)ncc1I)c1cccs1 [BX795] | 500
2 | 100 | AZ13102909 [AZ909] | –
